Patent US4971964A, “Pyridine derivatives” (priority 1988, dated 1990)

What was measured:
[1] = test system: silver nitrate-induced arteriothromboembolia in male Wistar-Shizuoka rats; assay: Test on Inhibition of Silver Nitrate-Induced Arteriothromboembolia in Rats; format: in vivo; details: for Number of Obstruction Case/Number of Experiments: control 23/26; for Percent Obstruction: control 88%
From the text: Male Wistar -Shizuoka rats weighing 270±20 g were anesthetized with urethane (1.5 g/kg) intraperitoneally. Each animal was fixed on its back, and a venous cannula and an arterial cannula were inserted into the left carotid vein and the left femoral artery, respectively. An abdominal incision was made, the intestinal tract was put aside so that the descending abdominal aorta could be seen, the surrounding connective tissues were removed, the descending aorta was detached to a length of about 1 cm, and the detached descending aorta was put on a globe of 8 cm in diameter. A solvent (0.1 ml; physiological saline containing 0.05N sodium hydroxide) or a drug solution (0.1 ml) in the solvent was injected via the cannulated carotid vein per 100 g of body weight. Three minutes later, a 30% silver nitrate aqueous solution was dropped on the detached descending abdominal aorta. Five minutes later, the globe was removed, and the affected site was washed three times with physiological saline to stop the reaction. After the elapse of 30 minutes from the stopping of the reaction, the blood pressure of the femoral artery was measured, and the pressure fall was taken as an indication of obstruction of the descending arterial. Significance of the difference in degree of the obstruction between the control group (only the solvent was administered) and the test group was assayed by X^2 -assay.

dd male mice = assay: Acute Toxicity Test (minimum lethal dose, MLD); format: in vivo; details: dd male mice, mortality after 7 days
Description: A test compound was given to dd male mice weighing 20±1 g (3 mice per group) per os. (p.o.; 300 mg/kg) or intraperitoneally (i.p.; 100 mg/kg). The mortality after 7 days from the administration was considered to determine the minimum lethal dose (MLD).

[2] = target: T1, thromboxane synthase (TXA2 synthase), bovine platelet microsome (Bos taurus, UniProt Q2KIG5); assay: Test on Inhibition of TXA2 Biosynthesis (bovine platelet microsome, TXB2 by radioimmunoassay); format: biochemical; details: for IC50: bovine platelet microsome, pH 7.4, prostaglandin H2 substrate
T1 construct: bovine platelet microsome; from tissue; host or cells: bovine platelets (microsome)
T1 sequence (Q2KIG5 1-533): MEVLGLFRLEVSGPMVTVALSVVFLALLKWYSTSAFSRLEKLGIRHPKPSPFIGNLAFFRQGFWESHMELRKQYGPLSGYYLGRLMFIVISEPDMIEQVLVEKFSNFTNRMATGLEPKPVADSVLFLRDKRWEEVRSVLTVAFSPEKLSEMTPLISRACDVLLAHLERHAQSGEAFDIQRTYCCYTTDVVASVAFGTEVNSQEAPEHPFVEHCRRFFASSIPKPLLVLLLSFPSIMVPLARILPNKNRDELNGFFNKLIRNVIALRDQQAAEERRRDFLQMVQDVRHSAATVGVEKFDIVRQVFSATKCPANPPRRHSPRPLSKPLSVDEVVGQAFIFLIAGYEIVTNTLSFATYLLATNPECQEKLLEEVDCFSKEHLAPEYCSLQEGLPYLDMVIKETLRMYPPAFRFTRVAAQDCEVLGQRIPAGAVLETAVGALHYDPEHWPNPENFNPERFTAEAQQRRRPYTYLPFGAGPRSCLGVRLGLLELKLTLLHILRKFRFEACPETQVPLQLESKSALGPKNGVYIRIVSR
Description: A mixture of 70 μl of bovine platelet microsome [protein: 40 μg; 100 mM tris-HCl buffer (pH=7.4)] and 10 μl of a test compound solution (100 mM tris-HCl buffer containing 10% methanol) was allowed to stand at 0° C. for 5 minutes, and 20 μl of a prostaglandin H2 solution (100 mM tris-HCl buffer supplemented with acetone containing 0.1 nmol of prostaglandin H2) was added thereto as a substrate.
The amount of thromboxane B2 (TXB2) (stable degradation product of TXA2) produced in the system was determined by radioimmunoassay [F. A. Fitzpatrick et al., Methods in Enzymology, Vol. 86, p.286 (1982)].
Inhibition of TXB2 synthesis was evaluated by IC50 (50% inhibitory concentration) or percent inhibition as calculated from equation described below, and the results obtained are shown in Table 1. [formula]

Compound | Acute Toxicity (MLD) ip (dd male mice) | Acute Toxicity (MLD) po (dd male mice) | IC50 [2] | other results
O=C(O)CCCC/C=C(\c1ccccc1)c1cccnc1 [CV-4151, reference compound] | – | – | – | Number of Obstruction Case/Number of Experiments ([1]; 0.3 mg/kg i.v.): 4/6; Percent Obstruction ([1]; 0.3 mg/kg i.v.): 67%; Number of Obstruction Case/Number of Experiments ([1]; 1.0 mg/kg i.v.): 4/8; Percent Obstruction ([1]; 1.0 mg/kg i.v.): 50%; Number of Obstruction Case/Number of Experiments ([1]; 3.0 mg/kg i.v.): 1/5; Percent Obstruction ([1]; 3.0 mg/kg i.v.): 20%
O=C(O)CCCCC=C1c2cc(Br)ccc2NC(=O)c2ccncc21 [Compound I-1, 9-Bromo-11-(5-carboxypentylidene)-5,11-dihydropyrido-[4,3-c][1]benzazepin-5(6H)-one] | > 100 mg/kg | > 300 mg/kg | 32 nM | –
Cc1cccc2c1NC(=O)c1ccncc1C2=CCCCCC(=O)O [Compound I-2, 11-(5-Carboxypentylidene)-7-methyl-5,11-dihydropyrido-[4,3-c][1]benzazepin-5(6H)-one] | > 100 mg/kg | > 300 mg/kg | – | inhibition at 0.1 µM ([2]; 0.1 μM (footnote *), read-out: Inhibition of TXA2 Biosynthesis, Percent inhibition at 0.1 μM): 41%
COc1ccc2c(c1)C(=CCCCCC(=O)O)c1cnccc1C(=O)N2C [Compound I-3, 11-(5-Carboxypentylidene)-9-methoxy-6-methyl-5,11-dihydropyrido-[4,3-c][1]benzazepin-5(6H)-one] | > 100 mg/kg | > 300 mg/kg | 400 nM | –
O=C(O)CCCC=C1c2ccccc2NC(=O)c2ccncc21 [Compound I-4, 11-(4-Carboxybutylidene)-5,11-dihydropyrido[4,3-c][1]-benzazepin-5(6H)-one] | > 100 mg/kg | > 300 mg/kg | 250 nM | –
O=C(O)CCCCCCC=C1c2ccccc2NC(=O)c2ccncc21 [Compound I-5, 11-(7-Carboxyheptylidene)-5,11-dihydropyrido[4,3-c][1]-benzazepin-5(6H)-one] | > 100 mg/kg | > 300 mg/kg | 130 nM | –
CSC1=Nc2ccccc2C(=CCCCCC(=O)O)c2cnccc21 [Compound I-6, 11-(5-Carboxypentylidene)-5-thiomethyl-11(H)-pyrido-[4,3-c][1]benzazpin] | > 100 mg/kg | > 300 mg/kg | 5 nM | –
C/C=C/C1=Cc2ccccc2/C(=C/CCCCC(=O)O)c2cnccc21 [Compound I-7, (Z)-11-(5-Carboxypentylidene)-5-[(E)-1-propen-1-yl]-(H)-pyrido[3,4-b]benzcycloheptene] | > 100 mg/kg | > 300 mg/kg | 21 nM | –
O=C(O)CCCC/C=C1\c2ccccc2NC(=O)c2ccncc21 [Compound I-10E, (E)-11-(5-Carboxypentylidene)-5,11-dihydropyrido[4,3-c][1]benzazepin-5(6H)-one] | > 100 mg/kg | > 300 mg/kg | 21 nM | –
O=C(O)CCCC/C=C1/c2ccccc2NC(=O)c2ccncc21 [Compound I-10Z, (Z)-11-(5-carboxypentylidene)-5,11-dihydropyrido[4,3-c][1]benzazepin-5(6H)-one] | > 100 mg/kg | > 300 mg/kg | 16 nM | –
O=C(O)CCCC/C=C1/c2cnccc2C(=O)N(Cc2ccccc2)c2ccccc21 [Compound I-11E, (E)-6-Benzyl-11-(5-carboxypentylidene)-5,11-dihydropyrido[4,3-c][1]benzazepin-5(6H)-one] | > 100 mg/kg | > 300 mg/kg | 8.3 nM | –
O=C(O)CCCC/C=C1\c2cnccc2C(=O)N(Cc2ccccc2)c2ccccc21 [Compound I-11Z, (Z)-6-benzyl-11-(5-carboxypentylidene)-5,11-dihydropyrido[4,3-c][1]benzazepin-5(6H)-one] | > 100 mg/kg | > 300 mg/kg | 41 nM | –
CN1C(=O)c2ccncc2/C(=C/CCCCC(=O)O)c2ccccc21 [Compound I-12E, (E)-11-(5-Carboxypentylidene)-6-methyl-5,11-dihydropyrido[4,3-c][1]benzazepin-5(6H)-one] | > 100 mg/kg | > 300 mg/kg | 20 nM | –
COC1=Nc2ccncc2/C(=C\CCCCC(=O)O)c2ccccc21 [Compound I-13Z, (Z)-11-(5-carboxypentylidene)-6-methoxy-11H-pyrido[4,3-c][2]benzazepin] | > 100 mg/kg | > 300 mg/kg | 3.5 nM | –
O=C(O)CCCC/C=C1/c2cnccc2NC(=O)c2ccccc21 [Compound I-14E, (E)-11-(5-Carboxypentylidene)-6,11-dihydropyrido[4,3-c][2]benzazepin-6(5H)-one] | > 100 mg/kg | > 300 mg/kg | 22 nM | –
O=C(O)CCCC/C=C1\c2cnccc2NC(=O)c2ccccc21 [Compound I-14Z, (Z)-11-(5-Carboxypentylidene)-6,11-dihydropyrido[4,3-c][2]benzazepin-6(5H)-one] | > 100 mg/kg | > 300 mg/kg | 451 nM | –
O=C(O)CCCCC=C1c2cnccc2CNc2ccccc21 [Compound I-15, 11-(5-Carboxypentylidene)-11H-5,6-dihydropyrido[4,3-c][1]benzazepin] | > 100 mg/kg | > 300 mg/kg | 22 nM | –
CSC1=Nc2ccccc2C(=CCCCCC(=O)O)c2ccncc21 [Compound I-18, 5-(5-Carboxypentylidene)-11-thiomethyl-5H-pyrido[3,4-c][1]benzazepin] | > 100 mg/kg | > 300 mg/kg | 100 nM | –
O=C(O)CCCC/C=C1/c2ccccc2NC(=O)c2cnccc21 [Compound I-19E, (E)-5-(5-Carboxypentylidene)-5,11-dihydropyrido[3,4-c][1]benzazepin-11(10H)-one] | > 100 mg/kg | > 300 mg/kg | – | inhibition at 10 µM [2]: 13%
O=C(O)CCCC/C=C1\c2ccccc2NC(=O)c2cnccc21 [Compound I-19Z, (Z)-5-(5-carboxypentylidene)-5,11-dihydropyrido[3,4-c][1]benzazepin-11(10H)-one] | > 100 mg/kg | > 300 mg/kg | – | inhibition at 10 µM [2]: 8%
CN1C(=O)c2cnccc2/C(=C\CCCCC(=O)O)c2ccccc21 [Compound I-20E, (E)-5-(5-Carboxypentylidene)-10-methyl-5,11-dihydropyrido[3,4-c][1]benzazepin-11(10H)-one] | > 100 mg/kg | > 300 mg/kg | – | inhibition at 10 µM [2]: 10%
CN1C(=O)c2cnccc2/C(=C/CCCCC(=O)O)c2ccccc21 [Compound I-20Z, (Z)-5-(5-carboxypentylidene)-10-methyl-5,11-dihydropyrido[3,4-c][1]benzazepin-11(10H)-one] | > 100 mg/kg | > 300 mg/kg | – | inhibition at 10 µM [2]: -23%
C/C(=C\c1ccc(Cc2cccnc2)cc1)C(=O)O [OKY-1581, reference compound] | – | – | – | Number of Obstruction Case/Number of Experiments ([1]; 0.3 mg/kg i.v.): 5/5; Percent Obstruction ([1]; 0.3 mg/kg i.v.): 100%; Number of Obstruction Case/Number of Experiments ([1]; 1.0 mg/kg i.v.): 4/6; Percent Obstruction ([1]; 1.0 mg/kg i.v.): 67%; Number of Obstruction Case/Number of Experiments ([1]; 3.0 mg/kg i.v.): 0/3; Percent Obstruction ([1]; 3.0 mg/kg i.v.): 0%
